Assays:
[1] = test system: severe acne vulgaris; test: Multi-center randomized investigator-blind clinical study, 20 weeks: efficacy on acne lesions, nodules and atrophic scars; format: in vivo, human; conditions: for Atrophic acne scar count (Mean ± SD): half face
Experimental: This example was the first study evaluating the concomitant use of these treatments.
Isotretinoin is administrated under capsule form (of 40 mg and/or 10 mg each). The quantity administrated was calculated according to patient weight and treatment duration in order to finally administrate a dosage of 0.5 mg/kg for the first 4 weeks of treatment and 1 mg/kg for the 16 remaining weeks.
This study was conducted as a multi-center, randomized, investigator-blind, controlled and parallel group trial. This non-inferiority study involved subjects of any race, aged 12 to 35 years inclusive with severe acne and meeting specific eligibility criteria.
Subjects were randomized at baseline and treated for 20 weeks with either Adapalene-BPO gel associated with oral doxycycline or its vehicle gel associated with oral Isotretinoin.
A total of 266 subjects were enrolled across 29 centres in Canada. Of which, 217 subjects were included in the analysis-per-protocol (PP) populations (all randomized subjects without any major protocol deviations) for primary endpoint analysis. All other endpoints were analysed with population-intent-to-treat (ITT) (all randomized subjects who were dispensed study medication) (N=266).
For efficacy variables, in order to evaluate the effect of major deviations or of data exclusions, the ITT population were analyzed at each visit using the last observation carried forward (LOCF) to impute missing values. If no post-baseline data was available, baseline was carried forward. […] The other missing values were not replaced (observed data).
(§1) Reduction of at least 75% of number of nodules at the end of treatment
Other secondary efficacy endpoints were the percent change from baseline visit in Total lesion counts, Inflammatory lesion counts, Nodule counts, and the total atrophic acne scar counts.

[2] = test system: severe acne vulgaris; test: Same clinical study: composite overall success (efficacy + safety); format: in vivo, human
Source text: To achieve this objective, a primary outcome, overall success, was defined as a composite endpoint including efficacy and safety measurements.
Overall success was deemed to be reached when the 2 following criteria were fulfilled:
as §1

[3] = test system: P. acnes; test: P. acnes presence by UV fluorescence photography (Visia system), subset of 40 subjects; format: in vivo
Experimental: Atrophic acne scar counts were conducted on half the face and the presence of P. acnes were also assessed by UV fluorescence photography (Visia® system—Canfield Scientific, Inc.). […] As few centers were equipped with this system, this test was performed on a subset of only 40 subjects.

[4] = when combined with BPO; unlike tretinoin; cited from earlier work
[5] = ITT Observed population, count (%)
[6] = APT, Very Bothered at least 1 Month + Persisting at least 2 Weeks + At least 1 episode
[7] = ITT observed, chelitis, xerosis, erythema, dry mouth, pruritus, epistaxis, conjunctivitis, eye irritation, dry eye
[8] = ITT observed, lip balm, moisturizer, cleanser, cosmetics not counted
[9] = ITT observed, phototoxicity, allergic skin/eczematous reaction, candida vaginitis
[10] = ITT observed, study termination at subject's request motivated by treatment concern

With `CC1=C(/C=C/C(C)=C/C=C/C(C)=C\C(=O)O)C(C)(C)CCC1` [Vehicle + Isotretinoin, 13-cis-retinoic acid] the “Efficacy failure (nodule reduction <75%), Event” value ([1]; ITT observed) was 2 n, the “Efficacy failure (nodule reduction <75%), Subject” value ([1]; ITT observed) was 2 (1.6%) n, % and the “Efficacy Success (nodule reduction >75%)” value ([1]; PP population, end of 20-week treatment) was 110 (98.2%) patients (%). The “Atrophic acne scar count (Mean ± SD)” value ([1]; W12-LOCF (ITT)) was 16.7 ± 15.7, the “Atrophic acne scar count (Mean ± SD)” value ([1]; W20-LOCF (ITT)) was 16.1 ± 16.7 and the “Inflammatory lesions (Median) (not including nodules), % change” value ([1]; Week 20, ITT LOCF) was −95%. For the same molecule, the “Nodules (Mean), % change” value ([1]; Week 20, ITT LOCF) was −96%, the “Total lesion counts (Median), % change” value ([1]; Week 20, ITT LOCF) was −93% and the “acne lesion outcomes compared to Adapalene-BPO+Doxycycline (in words)” value ([1]; Week 20, most of the acne lesion outcomes) was “superior”. For the same molecule, the “Overall success: Failure” value [2, 5] was 52 (41.6%), the “Overall success: Success” value [2, 5] was 73 (58.4%) and the “Overall Success” value ([2]; PP population, 20 weeks) was 65 (58.0%) patients (%). For the same molecule, the “Overall success: Failure” value ([2]; PP population, count (%)) was 47 (42.0%), the “composite endpoint (efficacy and safety), overall success” value ([2]; intent-to-treat population, p=0.125) was 54.9% and the “composite endpoint (efficacy and safety), overall success” value ([2]; per-protocol population, p=0.014) was 58%. For the same molecule, the “P. acnes fluorescence, median percent change” value ([3]; week 2) was “+14.1%”, the “P. acnes reduction (in words)” value ([3]; week 20) was “in favor of ISO” and the “Clinically significant lab abnormality, Evt” value (APT) was 6 n. The “Clinically significant lab abnormality, Subj.” value (APT) was 4 (3.0%) n (%), the “Related AE requiring a prescription of a concomitant medical treatment, Evt” value (APT) was 34 n and the “Related AE requiring a prescription of a concomitant medical treatment, Subj.” value (APT) was 27 (25.6%) n (%). The “Related AEs deemed as safety failure, Subj.” value (APT) was 45 (33.8%) n (%), the “Related AEs leading to discontinuation, Evt” value (APT) was 5 n and the “Related AEs leading to discontinuation, Subj.” value (APT) was 4 (3.0%) n (%). The “Related AEs, Evt” value (APT) was 299 n, the “Related AEs, Subj. with at least one event” value (APT) was 117 (88.0%) n (%) and the “Related serious AEs, Evt” value (APT) was 1 n. The “Related serious AEs, Subj.” value (APT) was 1 (0.8%) n (%), the “Related severe AEs, Evt” value (APT) was 5 n and the “Related severe AEs, Subj.” value (APT) was 5 (3.8%) n (%). For the same molecule, the “subjects reporting at least 1 related AE” value (APT) was 88%, the “subjects with related AEs deemed as a safety failure (AEs of special management concern)” value (APT) was 33.8% and the “Other medically relevant related AEs, Evt” value [6] was 35 n. The “Other medically relevant related AEs, Subj.” value [6] was 23 (17.3%) n (%), the “Related AEs deemed as safety failure, Evt” value (APT, each AE counted once) was 73 n and the “Clinically significant lab abnormality, Event” value (ITT observed) was 6 n. The “Clinically significant lab abnormality, Subject” value (ITT observed) was 4 (3.2%) n, %, the “Inability to escalate to Iso 1 mg/kg/day, Event” value (ITT observed) was 5 n and the “Inability to escalate to Iso 1 mg/kg/day, Subject” value (ITT observed) was 5 (4.0%) n, %. For the same molecule, the “Necessity of oral drug downward dose adjustment, Event” value (ITT observed) was 2 n, the “Necessity of oral drug downward dose adjustment, Subject” value (ITT observed) was 2 (1.6%) n, % and the “Related AE leading to discontinuation, Event” value (ITT observed) was 5 n. For the same molecule, the “Related AE leading to discontinuation, Subject” value (ITT observed) was 4 (3.2%) n, %, the “Related SAE, Event” value (ITT observed) was 1 n and the “Related SAE, Subject” value (ITT observed) was 1 (0.8%) n, %. The “Related Severe AE, Event” value (ITT observed) was 5 n, the “Related Severe AE, Subject” value (ITT observed) was 5 (4.0%) n, % and the “Safety Failure, Event” value (ITT observed) was 95 n. The “Safety Failure, Subject” value (ITT observed) was 50 (40.0%) n, %, the “subjects with safety failure” value (ITT observed) was 40.0% and the “Predefined related AE Very Bothered, at least 1 Month, Event” value [7] was 2 n. The “Predefined related AE Very Bothered, at least 1 Month, Subject” value [7] was 2 (1.6%) n, %, the “Related AE requiring a prescription of a concomitant medical treatment, Event” value [8] was 34 n and the “Related AE requiring a prescription of a concomitant medical treatment, Subject” value [8] was 27 (21.6%) n, %. The “Predefined related AE for at least 1 episode, Event” value [9] was 21 n, the “Predefined related AE for at least 1 episode, Subject” value [9] was 15 (12.0%) n, % and the “Subject's treatment concern, Event” value [10] was 2 n. For the same molecule, the “Subject's treatment concern, Subject” value [10] was 2 (1.6%) n, % and the “Safety Success (absence of medically relevant events)” value (PP population, 20 weeks) was 67 (59.8%) patients (%).

In the case of `COc1ccc(-c2ccc3cc(C(=O)O)ccc3c2)cc1C12CC3CC(CC(C3)C1)C2` [Adapalene, 6-[3-(1-adamantyl)-4-methoxyphenyl]-2-naphtoic acid], the “stability in the presence of light” value [4] is listed as “stable”.

Reference: patent publication US20160310512A1, “THERAPY REGIMEN FOR TREATING SEVERE ACNE RELATED DISEASES” (GALDERMA RESEARCH & DEVELOPMENT, priority 2013, published 2016)
